# Experiments:
# Type in all cases: in vivo, mouse
# [1] = tested on: C57BL6/J and p16-3MR mice injured with bleomycin; test: Bleomycin-induced pulmonary fibrosis in mice
# [2] = tested on: C57BL6/J and p16-3MR mice injured with bleomycin; test: Bleomycin-induced pulmonary fibrosis in mice; remark: listed apart in the source
# Description: RNA was extracted from cells or tissues using commercially available kits (Isolate II—Bioline for cells; Direct-zol—Zymo for tissues) according to the manufacturer's instructions. cDNA synthesis was performed using a High Capacity cDNA Reverse Transcription Kit (Thermo Fisher) according to the manufacturer's instructions. Quantitative PCR was performed on a LightCycler 480 II (Roche) using primers and probes designed for the Universal Probe Library. Primers and probes used for human transcripts were ACTB: 5′-CCAACCGCGAGAAGATGA (SEQ ID NO:1), 5′-TCCATCACGATGCCAGTG (SEQ ID NO:2), Probe #64; TUBA: 5′-cttcgtctccgccatcag (SEQ ID NO:3), 5′-ttgccaatctggacacca (SEQ ID NO:4), Probe #58; ALOX5: 5′-[…] (SEQ ID NO:5), 5′-[…] (SEQ ID NO:6), Probe #64; ALOX5AP: 5′-ggtctgcggggctacttt (SEQ ID NO:7), 5′-[…] (SEQ ID NO:8), Probe #18; ALOX12: 5′-[…] (SEQ ID NO:9), 5′-agccaggtcgtcaggag (SEQ ID NO:10), Probe #32; ALOX15: 5′-[…] (SEQ ID NO:11), 5′-[…] (SEQ ID NO:12), Probe #76; ALOX15B: 5′-[…] (SEQ ID NO:13), 5′-actgggaggcgaagaagg (SEQ ID NO:14), Probe #51; AKR1C1: 5′-catgcctgtcctgggattt (SEQ ID NO:15), 5′-[…] (SEQ ID NO:16), Probe #49; AKR1C2: 5′-ctatgcgcctgcagaggt (SEQ ID NO:17), 5′-[…] (SEQ ID NO:18), Probe #31; AKR1C3: 5′-[…] (SEQ ID NO:19), 5′-[…] (SEQ ID NO:20), Probe #78; CYSLTR2: 5′-[…] (SEQ ID NO:21), 5′-[…] (SEQ ID NO:22), Probe #18; DPEP1: 5′-gacgtcctgaggctggtg (SEQ ID NO:23), 5′-[…] (SEQ ID NO:24), Probe #9 (SEQ ID NO:25), ELOVL2: 5′-[…] (SEQ ID NO:26), 5′-[…] (SEQ ID NO:27), Probe #53; ELOVL4: 5′-catttggcccatggattc (SEQ ID NO:28), 5′-[…] (SEQ ID NO:29), Probe #31; ELOVL5: 5′-cccttccatgcgtccata (SEQ ID NO:30), 5′-[…] (SEQ ID NO:31), Probe #31; EPHX2: 5′-ttctgctggacaccctgaa (SEQ ID NO:32), 5′-[…] (SEQ ID NO:33), Probe #45; GPX4: 5′-ttcccgtgtaaccagttcg (SEQ ID NO:34), 5′-[…] (SEQ ID NO:35), Probe #36; LTA4H: 5′-ctgctctcacggtccagtc (SEQ ID NO:36), 5′-[…] (SEQ ID NO:37), Probe #64; LTBR2: 5′-[…] (SEQ ID NO:38), 5′-[…] (SEQ ID NO:39), Probe #33; LTC4S: 5′-[…] (SEQ ID NO:40), 5′-[…] (SEQ ID NO:41), Probe #18; PTGDS: 5′-[…] (SEQ ID NO:42), 5′-[…] (SEQ ID NO:43), Probe #36; PTGES: 5′-agagatgcctgcccacag (SEQ ID NO:44), 5′-tggccaccacgtacatctt (SEQ ID NO:45), Probe #4; PTGES2: 5′-[…] (SEQ ID NO:46), 5′-[…] (SEQ ID NO:47), Probe #49; PTGES3 (SEQ ID NO:48), 5′-[…] (SEQ ID NO:49), 5′-[…] (SEQ ID NO:50), Probe #48; PTGIS: 5′-[…] (SEQ ID NO:51), 5′-[…] (SEQ ID NO:52), Probe #45; PTGR1: 5′-atgatggggcagcaagtg (SEQ ID NO:53), 5′-cccatcagaaatggagtgc (SEQ ID NO:54), Probe #64; PTGS1: 5′-[…] (SEQ ID NO:55), 5′-gtggtggtccatgttcctg (SEQ ID NO:56), Probe #81; PTGS2: 5′-gatccccagggctcaaac (SEQ ID NO:57), 5′-[…] (SEQ ID NO:58), Probe #61; TBXAS1: 5′-[…] (SEQ ID NO:59), 5′-tgcctcccgtgtgaatct (SEQ ID NO:60), Probe #73; AREG: 5′-[…] (SEQ ID NO:61), 5′-[…] (SEQ ID NO:62), Probe #73; CCL2: 5′-AGTCTCTGCCGCCCTTCT (SEQ ID NO:63), 5′-GTGACTGGGGCATTGATTG (SEQ ID NO:64), Probe #40; CCL27: 5′-[…] (SEQ ID NO:65), 5′-gctgggtggcagtaggaat (SEQ ID NO:66), Probe #18; CXCL1: 5′-[…] (SEQ ID NO:67), 5′-[…] (SEQ ID NO:68), Probe #52; HGF: 5′-[…] (SEQ ID NO:69), 5′-[…] (SEQ ID NO:70), Probe #49; ILIA: 5′-[…] (SEQ ID NO:71), 5′-[…] (SEQ ID NO:72), Probe #6; IL1B: 5′-[…] (SEQ ID NO:73), 5′-[…] (SEQ ID NO:74), Probe #78; IL6: 5′-[…] (SEQ ID NO:75), 5′-gaaggcagcaggcaacac (SEQ ID NO:76), Probe #45; IL8: 5′-[…] (SEQ ID NO:77), 5′-atggttccttccggtggt (SEQ ID NO:78), Probe #72; IL10: 5′-[…] (SEQ ID NO:79), 5′-[…] (SEQ ID NO:80), Probe #67; MMP3: 5′-[…] (SEQ ID NO:81), 5′-[…] (SEQ ID NO:82), Probe #36; PDGFA: 5′-[…] (SEQ ID NO:83), 5′-[…] […]
# p16-positive cells = test: Eicosanoid synthase gene expression in livers of doxorubicin-treated or aged p16-3MR mice; settings: liver
# Description: RNA was extracted from cells or tissues using commercially available kits (Isolate II—Bioline for cells; Direct-zol—Zymo for tissues) according to the manufacturer's instructions. cDNA synthesis was performed using a High Capacity cDNA Reverse Transcription Kit (Thermo Fisher) according to the manufacturer's instructions. Quantitative PCR was performed on a LightCycler 480 II (Roche) using primers and probes designed for the Universal Probe Library. Primers and probes used for human transcripts were ACTB: 5′-CCAACCGCGAGAAGATGA (SEQ ID NO:1), 5′-TCCATCACGATGCCAGTG (SEQ ID NO:2), Probe #64; TUBA: 5′-cttcgtctccgccatcag (SEQ ID NO:3), 5′-ttgccaatctggacacca (SEQ ID NO:4), Probe #58; ALOX5: 5′-[…] (SEQ ID NO:5), 5′-[…] (SEQ ID NO:6), Probe #64; ALOX5AP: 5′-ggtctgcggggctacttt (SEQ ID NO:7), 5′-[…] (SEQ ID NO:8), Probe #18; ALOX12: 5′-[…] (SEQ ID NO:9), 5′-agccaggtcgtcaggag (SEQ ID NO:10), Probe #32; ALOX15: 5′-[…] (SEQ ID NO:11), 5′-[…] (SEQ ID NO:12), Probe #76; ALOX15B: 5′-[…] (SEQ ID NO:13), 5′-actgggaggcgaagaagg (SEQ ID NO:14), Probe #51; AKR1C1: 5′-catgcctgtcctgggattt (SEQ ID NO:15), 5′-[…] (SEQ ID NO:16), Probe #49; AKR1C2: 5′-ctatgcgcctgcagaggt (SEQ ID NO:17), 5′-[…] (SEQ ID NO:18), Probe #31; AKR1C3: 5′-[…] (SEQ ID NO:19), 5′-[…] (SEQ ID NO:20), Probe #78; CYSLTR2: 5′-[…] (SEQ ID NO:21), 5′-[…] (SEQ ID NO:22), Probe #18; DPEP1: 5′-gacgtcctgaggctggtg (SEQ ID NO:23), 5′-[…] […]
# [3] = bleomycin-treated animals, day 14, ELISA
smiles,measurement,setting,value
"Nc1nc(O)c2ncn(COC(CO)CO)c2n1 [GCV, ganciclovir]",collagen content (hydroxyproline),[1]; 21 days after injury,reduced
same,cysteinyl leukotrienes in bronchioalveolar lavage fluid (BALF),[1]; [3],reduced
same,prostaglandin E2 in bronchioalveolar lavage fluid (BALF),[1]; [3],reduced
same,RNA levels of p16INK4a and p21WAF1 in lungs,[2]; 14 days after bleomycin injury,significantly attenuated
same,collagen expression (Col3a1 and Col4a1),"[2]; bleomycin-injured mice, 21 days after injury as printed",reduced
same,eicosanoid synthase expression,"p16-positive cells; doxorubicin-treated p16-3MR mice, day 10",reduced
same,eicosanoid synthase expression,p16-positive cells; p16-3MR mice aged 21 months,not statistically significant

# Source: patent US20200371122A1, “BIOMARKER FOR SENESCENT CELLS” (Buck Institute for Research on Aging, priority 2017, published 2020)
